Series [1] in a line: Rat oral pharmacokinetics at 3 mg/kg. Conditions: fasted rats. It counts as in vivo. How it is done: A rat study with oral administration at 3 mg/kg was performed. Two pharmaceutical formulations of the present invention, the crystalline compound and crushed BELSOMRA® tablets were administered and plasma concentrations were measured. Absorption following the administration of the pharmaceutical formulations of the present invention was immediate, while absorption for the crystalline and BELSOMRA® were slower.

The subject of another series is human plasma proteins. Conditions: cited from earlier work.
The conditions of series [2]: cited from earlier work.

The structures appear in SMILES notation.

With `Cc1ccc(-n2nccn2)c(C(=O)N2CCN(c3nc4cc(Cl)ccc4o3)CC[C@H]2C)c1` [crystalline compound], the “absorption after oral administration (in words)” value in series [1] is listed as “slower”.

`Cc1ccc(-n2nccn2)c(C(=O)N2CCN(c3nc4cc(Cl)ccc4o3)CC[C@H]2C)c1` [Suvorexant, [(7R)-4-(5-chloro-2-benzoxazolyl)hexahydro-7-methyl-1H-1,4-diazepin-1-yl][5-methyl-2-(2H-1,2,3-triazol-2-yl)phenyl]methanone]: the “bound to human plasma proteins” value in the series with human plasma proteins is on record as above 99%. The mean absolute bioavailability in series [2] (10 mg) was 82%. For the same compound, in series [2] (95% CI: 12 to 13), the “mean t½” value was “approximately 12 hours”. Also, in series [2] (fasted conditions), the median tmax was 2 h and the tmax range is 0.5 to 6 h. In series [2] (high-fat meal), the “change in AUC or Cmax with high-fat meal” value is reported as “no meaningful change” and the “delay in tmax with high-fat meal” value is recorded as “approximately 1.5 hours”. For the same compound, in series [2] (human, in vivo), the “mean volume of distribution” value is reported as “approximately 49 liters”, the “radiolabeled dose recovered in the feces” value is given as “approximately 66%” and the “radiolabeled dose recovered in the urine” value was 23%. In series [2] (once-daily dosing), the accumulation is listed as 1- to 2 fold and the time to steady-state is given as at most 3 days. Moreover, the “dose proportionality of exposure” value in series [2] (range of 10-80 mg) is reported as “less than strictly dose-proportional”.

Source of the values: US20200078303A1, “PHARMACEUTICAL FORMULATIONS OF SUVOREXANT” (Druggability Technologies IP HoldCo Ltd., priority 2016, published 2020).
